Patent US20230053540A1, “TREATMENT OF LIVER INJURY” (Massachusetts Institute of Technology, priority 2019, published 2023)

Tested on: hepatocytes
Assay: Seq-Well scRNA-Seq of hepatocytes after APAP overdose (signature scores, DEG vs untreated)
Format: in vivo, mouse
[1] = cluster A6, DEG between treatment (APAP and PH)

CC(=O)Nc1ccc(O)cc1 [APAP, acetaminophen]
Ugdh avg_logFC (cluster A6 (APAP 6 hr)): 0.5563 | Ugdh pct.1 (cluster A6 (APAP 6 hr)): 0.721 | Vcam1 avg_logFC (cluster A6 (APAP 6 hr)): 0.4376 | Vcam1 pct.1 (cluster A6 (APAP 6 hr)): 0.134 | Vsig4 avg_logFC (cluster A6 (APAP 6 hr)): 0.4542 | Vsig4 pct.1 (cluster A6 (APAP 6 hr)): 0.117 | Wfdc17 avg_logFC (cluster A6 (APAP 6 hr)): 0.4173 | Wfdc17 pct.1 (cluster A6 (APAP 6 hr)): 0.177 | Xbp1 avg_logFC (cluster A6 (APAP 6 hr)): 0.4407 | Xbp1 pct.1 (cluster A6 (APAP 6 hr)): 0.692 | Ywhag avg_logFC (cluster A6 (APAP 6 hr)): 0.4649 | Ywhag pct.1 (cluster A6 (APAP 6 hr)): 0.518 | mmu-mir-6240 avg_logFC (cluster A6 (APAP 6 hr)): 1.083 | mmu-mir-6240 pct.1 (cluster A6 (APAP 6 hr)): 0.413 | avg_logFC 1700017B05Rik [1]: 0.3277 | avg_logFC 2010003K11Rik [1]: 0.5729 | avg_logFC AA474408 [1]: 0.2664 | avg_logFC Aass [1]: 0.4071 | avg_logFC Abca1 [1]: 0.6539 | avg_logFC Abhd2 [1]: 0.4149 | avg_logFC Actb [1]: 1.052 | avg_logFC Aff4 [1]: 0.5363 | avg_logFC Agpat9 [1]: 0.3049 | avg_logFC Alb [1]: 0.3749 | avg_logFC Apoa4 [1]: 1.166 | avg_logFC Apob [1]: 0.4802 | avg_logFC App [1]: 0.3381 | avg_logFC Arhgef12 [1]: 0.4856 | avg_logFC Asl [1]: 0.4135 | avg_logFC B4galt5 [1]: 0.4239 | avg_logFC Bach1 [1]: 0.7686 | avg_logFC Bcl2l1 [1]: 0.7415 | avg_logFC Bcl3 [1]: 0.2741 | avg_logFC Btg1 [1]: 0.3984 | avg_logFC Btg2 [1]: 0.7669 | avg_logFC C3 [1]: 0.2785 | avg_logFC C230081A13Rik [1]: 0.4184 | avg_logFC Cars [1]: 0.3067 | avg_logFC Ccl6 [1]: 0.7868 | avg_logFC Cdkn1a [1]: 1.252 | avg_logFC Cers6 [1]: 0.5071 | avg_logFC Chic2 [1]: 0.3964 | avg_logFC Chka [1]: 1.403 | avg_logFC Cidec [1]: 0.3067 | avg_logFC Cldn14 [1]: 0.3695 | avg_logFC Clec4f [1]: 1.124 | avg_logFC Cltc [1]: 0.6852 | avg_logFC Creb3l2 [1]: 0.3971 | avg_logFC Ctsl [1]: 0.5128 | avg_logFC Cxadr [1]: 0.6568 | avg_logFC Cyp4a14 [1]: 0.3334 | avg_logFC D10Wsu102e [1]: 0.5698 | avg_logFC Ddx3x [1]: 0.5612 | avg_logFC Ddx5 [1]: 0.5397 | avg_logFC Ddx21 [1]: 0.6559 | avg_logFC Dgkd [1]: 0.3584 | avg_logFC Dkc1 [1]: 0.3054 | avg_logFC Dot1l [1]: 0.3853 | avg_logFC Dusp6 [1]: 0.5087 | avg_logFC Dusp16 [1]: 0.4273 | avg_logFC Eaf1 [1]: 0.5072 | avg_logFC Eef2 [1]: 0.4059 | avg_logFC Efhd2 [1]: 0.5766 | avg_logFC Egr1 [1]: 0.537 | avg_logFC Eif1a [1]: 0.7228 | avg_logFC Eif4g2 [1]: 0.4126 | avg_logFC Eif5 [1]: 0.4809 | avg_logFC Epas1 [1]: 0.7138 | avg_logFC Epb4.1 [1]: 0.4678 | avg_logFC Errfi1 [1]: 0.3421 | avg_logFC Etf1 [1]: 0.4526 | avg_logFC Ets2 [1]: 0.6806 | avg_logFC Fam107b [1]: 0.4162 | avg_logFC Fam134b [1]: 0.8152 | avg_logFC Fga [1]: 0.501 | avg_logFC Fgb [1]: 0.4774 | avg_logFC Fgg [1]: 0.4751 | avg_logFC Fkbp5 [1]: 0.4567 | avg_logFC Fndc3b [1]: 0.3496 | avg_logFC Gclc [1]: 1.802 | avg_logFC Gcnt2 [1]: 0.5038 | avg_logFC Gjb2 [1]: 0.5038 | avg_logFC Gm15564 [1]: 0.7861 | avg_logFC Gm20594 [1]: 0.4405 | avg_logFC Gm24245 [1]: 0.4984 | avg_logFC Gm26917 [1]: 0.4239 | avg_logFC Gm26924 [1]: 0.7269 | avg_logFC Gn12 [1]: 0.358 | avg_logFC Gnl3 [1]: 0.4902 | avg_logFC Gpt2 [1]: 0.4695 | avg_logFC Gsta1 [1]: 0.4089 | avg_logFC Gtpbp4 [1]: 0.4623 | avg_logFC H3f3b [1]: 0.7184 | avg_logFC Hbb-bs [1]: 2.586 | avg_logFC Heatr1 [1]: 0.3815 | avg_logFC Hif1a [1]: 0.4876 | avg_logFC Hilpda [1]: 0.7803 | avg_logFC Hmox1 [1]: 1.34 | avg_logFC Hnf4a [1]: 0.6962 | avg_logFC Hnrnpdl [1]: 0.3993 | avg_logFC Hsd17b13 [1]: 0.4804 | avg_logFC Hspb8 [1]: 0.6089 | avg_logFC Ifrd1 [1]: 0.4765 | avg_logFC Igfbp1 [1]: 1.09 | avg_logFC Iigp1 [1]: 0.6431 | avg_logFC Il1r1 [1]: 1.189 | avg_logFC Insig2 [1]: 0.6081 | avg_logFC Itih2 [1]: 0.3927 | avg_logFC Itih3 [1]: 0.4042 | avg_logFC Jak1 [1]: 0.5437 | avg_logFC Jmjd1c [1]: 0.5963 | avg_logFC Kif5b [1]: 0.4522 | avg_logFC Klf6 [1]: 0.7067 | avg_logFC Krt8 [1]: 1.273 | avg_logFC Krt18 [1]: 1.227 | avg_logFC Lars2 [1]: 0.8143 | avg_logFC Lcn2 [1]: 0.3876 | avg_logFC Lmo4 [1]: 0.2962 | avg_logFC Lpin2 [1]: 0.5165 | avg_logFC Lrg1 [1]: 0.3324 | avg_logFC Lrrc58 [1]: 0.9396 | avg_logFC Lrrfip1 [1]: 0.4108 | avg_logFC Lyst [1]: 0.3717 | avg_logFC Mak16 [1]: 0.2897 | avg_logFC Malat1 [1]: 0.9854 | avg_logFC Map2k3 [1]: 0.415 | avg_logFC Map3k5 [1]: 0.3131 | avg_logFC Mat1a [1]: 0.3889 | avg_logFC Mat2a [1]: 0.4758 | avg_logFC Mcl1 [1]: 0.5249 | avg_logFC Mdn1 [1]: 0.3079 | avg_logFC Mfsd2a [1]: 0.461 | avg_logFC Mmp14 [1]: 0.2571 | avg_logFC Mpeg1 [1]: 0.4668 | avg_logFC Mrap [1]: 0.8615 | avg_logFC Mt1 [1]: 2.32 | avg_logFC Mt2 [1]: 2.038 | avg_logFC Mybbp1a [1]: 0.4018 | avg_logFC Myh9 [1]: 1.025 | avg_logFC Myl12a [1]: 0.4029 | avg_logFC Myo1e [1]: 0.5786 | avg_logFC Nars [1]: 0.3687 | avg_logFC Ncl [1]: 0.3882 | avg_logFC Neat1 [1]: 0.6554 | avg_logFC Nedd4l [1]: 0.2635 | avg_logFC Nolc1 [1]: 0.4445 | avg_logFC Nop58 [1]: 0.6343 | avg_logFC Pfkfb2 [1]: 0.2694 | avg_logFC Phc2 [1]: 0.299 | avg_logFC Picalm [1]: 0.6766 | avg_logFC Plec [1]: 0.4188 | avg_logFC Plin2 [1]: 1.454 | avg_logFC Plk3 [1]: 0.4158 | avg_logFC Plscr1 [1]: 0.4497 | avg_logFC Ppan [1]: 0.2767 | avg_logFC Ppl [1]: 0.8618 | avg_logFC Prrc2c [1]: 0.3906 | avg_logFC Ptp4a1 [1]: 0.2517 | avg_logFC Ptpn1 [1]: 0.3865 | avg_logFC Ptpn2 [1]: 0.271 | avg_logFC Ptpn12 [1]: 0.3093 | avg_logFC Pxk [1]: 0.2652 | avg_logFC Rad54l2 [1]: 0.3642 | avg_logFC Ranbp2 [1]: 0.5074 | avg_logFC Rcan1 [1]: 0.701 | avg_logFC Rell1 [1]: 0.5793 | avg_logFC Retsat [1]: 0.2918 | avg_logFC Rnd3 [1]: 0.3267 | avg_logFC Rock2 [1]: 0.5552 | avg_logFC Rora [1]: 0.541 | avg_logFC S100a8 [1]: 1.127 | avg_logFC S100a9 [1]: 1.342 | avg_logFC Sat1 [1]: 0.6887 | avg_logFC Sdad1 [1]: 0.2969 | avg_logFC Sdc4 [1]: 0.5673 | avg_logFC Sds [1]: 0.3515 | avg_logFC Serpina3m [1]: 0.7932 | avg_logFC Serpina3n [1]: 0.6641 | avg_logFC Slc10a2 [1]: 0.2704 | avg_logFC Slc16a6 [1]: 0.914 | avg_logFC Slc20a1 [1]: 0.326 | avg_logFC Slc39a14 [1]: 0.9161 | avg_logFC Smg1 [1]: 0.3045 | avg_logFC Son [1]: 0.4555 | avg_logFC Spred1 [1]: 0.352 | avg_logFC Sqstm1 [1]: 0.6992 | avg_logFC Srgn [1]: 0.9289 | avg_logFC Srxn1 [1]: 1.864 | avg_logFC St3gal1 [1]: 0.517 | avg_logFC St3gal5 [1]: 0.4358 | avg_logFC Stat3 [1]: 0.652 | avg_logFC Stk40 [1]: 0.493 | avg_logFC Stom [1]: 0.3 | avg_logFC Tacc2 [1]: 0.3128 | avg_logFC Tars [1]: 0.4718 | avg_logFC Tatdn2 [1]: 0.3248 | avg_logFC Tbc1d15 [1]: 0.4322 | avg_logFC Tcerg1 [1]: 0.3468 | avg_logFC Tiparp [1]: 0.5248 | avg_logFC Tjp2 [1]: 0.3961 | avg_logFC Tm4sf4 [1]: 0.4006 | avg_logFC Tmem87b [1]: 0.4054
